The text below walks through data of ChEMBL document CHEMBL5370659 (J Med Chem, 2023).

Data set [1] in a line: Aqueous solubility of the compound in pH 7.4 PBS buffer by HPLC-UV analysis. Type of data set: physicochemical.
The nature of data set [2]: Plasma protein binding in rat. Type of data set: ADME, cell-free. As to conditions: read-out: PPB (converted).
The nature of data set [3]: Apparent permeability across basal to apical side in human Caco-2 cells at pH 6.5/7.4 measured at 5 uM by LC-MS/MS analysis. As to conditions: Caco-2, pH 6.5. Type of data set: ADME, cell-based.
Data set [4] in a line: Metabolic stability in human hepatocytes assessed as intrinsic clearance. Type of data set: ADME, cell-based, Hepatocyte. The conditions noted are these: read-out: CLH.
Data set [5] concerns the target T1, Tryptophan 5-hydroxylase 2 (Homo sapiens, UniProt Q8IWU9).
T1 sequence (Q8IWU9 whole entry): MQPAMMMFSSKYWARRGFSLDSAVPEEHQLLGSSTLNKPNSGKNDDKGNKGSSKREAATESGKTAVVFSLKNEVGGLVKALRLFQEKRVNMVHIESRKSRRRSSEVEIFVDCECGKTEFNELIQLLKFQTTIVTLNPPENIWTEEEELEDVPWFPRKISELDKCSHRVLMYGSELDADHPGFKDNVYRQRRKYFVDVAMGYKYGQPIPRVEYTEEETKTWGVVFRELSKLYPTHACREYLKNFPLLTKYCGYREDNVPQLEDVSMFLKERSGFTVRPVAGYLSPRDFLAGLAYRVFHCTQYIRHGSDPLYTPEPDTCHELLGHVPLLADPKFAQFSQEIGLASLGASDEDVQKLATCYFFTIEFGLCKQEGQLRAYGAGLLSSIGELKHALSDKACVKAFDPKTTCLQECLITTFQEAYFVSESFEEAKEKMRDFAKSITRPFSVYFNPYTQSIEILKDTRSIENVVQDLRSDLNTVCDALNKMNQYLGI
Put plainly: Inhibition of recombinant MBP-tagged full length human THP2 using L-Trp as substrate assessed as formation of 5-HTP by measuring fluorescent property.

A short description of data set [6]: Permeability across basal to apical side in MDCK-MDR1 cells at pH 6.5/7.4 measured at 5 uM by LC-MS/MS analysis. Type of data set: ADME, cell-based, Canis lupus familiaris. The conditions noted are these: dog, MDCK-MDR1, pH 6.5.
Data set [7] can be described thus: Metabolic stability in rat hepatocytes assessed as half life. Type of data set: ADME, cell-based, Hepatocyte.
Data set [8] in a line: Apparent permeability across apical to basal side in human Caco-2 cells at pH 6.5/7.4 measured at 5 uM by LC-MS/MS analysis. Type of data set: ADME, cell-based. The conditions noted are these: Caco-2, pH 6.5.
A short description of data set [9]: Plasma protein binding in human. Type of data set: ADME, cell-free. The conditions noted are these: read-out: PPB (converted).
Data set [10] in a line: Permeability across apical to basal side in MDCK-MDR1 cells at pH 6.5/7.4 measured at 5 uM by LC-MS/MS analysis. The conditions noted are these: dog, MDCK-MDR1, pH 6.5. Type of data set: ADME, cell-based, Canis lupus familiaris.
In data set [11] the target is T2, Tryptophan 5-hydroxylase 1 (Homo sapiens, UniProt P17752).
T2 sequence (P17752 whole entry): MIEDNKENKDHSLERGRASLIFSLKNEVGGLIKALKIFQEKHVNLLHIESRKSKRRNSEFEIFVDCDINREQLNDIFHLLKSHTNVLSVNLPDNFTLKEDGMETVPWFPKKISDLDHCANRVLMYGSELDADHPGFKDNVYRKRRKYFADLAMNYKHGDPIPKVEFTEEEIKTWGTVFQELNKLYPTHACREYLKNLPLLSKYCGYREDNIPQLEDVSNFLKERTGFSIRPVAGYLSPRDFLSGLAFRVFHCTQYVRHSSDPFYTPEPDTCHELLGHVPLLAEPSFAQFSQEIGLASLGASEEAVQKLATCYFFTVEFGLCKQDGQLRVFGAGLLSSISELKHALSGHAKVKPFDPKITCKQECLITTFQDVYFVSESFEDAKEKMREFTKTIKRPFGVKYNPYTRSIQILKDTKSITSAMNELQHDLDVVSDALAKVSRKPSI
Kind of data set: Inhibition of recombinant MBP-tagged full length human THP1 using L-Trp as substrate assessed as formation of 5-HTP by measuring fluorescent property.

Data set [12] is described as follows: Metabolic stability in human hepatocytes assessed as half life. Type of data set: ADME, cell-based, Hepatocyte.
Data set [13] can be described thus: Metabolic stability in rat hepatocytes assessed as intrinsic clearance. Type of data set: ADME, cell-based, Hepatocyte. As to conditions: read-out: CLH.
A short description of data set [14]: Brain homogenate binding in rat. Type of data set: ADME, tissue-based.
Data set [15] is described as follows: Brain homogenate binding in mouse. Type of data set: ADME, tissue-based.

Converted amounts (≈) assume the structure as drawn.

`CCn1c(=O)[nH]c(=O)c2c1nc(Cc1cn3cc(C)sc3n1)n2CC1CC1` showed a solubility in [1] of 173 µM (≈ 66.5 µg/mL). Moreover, the values for the fraction unbound in [2] and in data set [9] were 0.17 and 0.06, respectively. The Papp B→A at 5 µM was found to be 57 ×10⁻⁶ cm/s in [3] and 54 ×10⁻⁶ cm/s in [6]. In data set [4], the CLint scaled was 19 mL/min/kg. Further, the IC50 in [5] was 23 nM; in [11], 100 nM. Also, the t1/2 in data set [7] was found to be 0.7 h. The Papp A→B at 5 µM in [8] is 1.29 ×10⁻⁶ cm/s; in [10], 0.45 ×10⁻⁶ cm/s. Moreover, in data set [12], the half-life worked out at 1.12 h.
Turning to `CCn1c(=O)[nH]c(=O)c2c1nc(Cc1cn3cc(Cl)sc3n1)n2CC1COC1`, the CLint scaled in data set [13] was < 17 mL/min/kg; in [4], < 8.6 mL/min/kg. In data set [1], the concentration in solution (solubility) was 200 µM (≈ 84.2 µg/mL). The fraction unbound is 0.5 in data set [2] and 0.38 in [9]. Moreover, the Activity in data set [14] and in data set [15] was < 1% in each case. Besides, the Papp B→A at 5 µM in data set [3] came to 29 ×10⁻⁶ cm/s; in [6], 30 ×10⁻⁶ cm/s. For the same compound, the figures for the IC50 in data set [5] and in [11] were 37 nM and 118 nM, respectively. Besides, the half-life in data set [7] and in data set [12] was > 2.42 h throughout. For the same compound, the Papp A→B at 5 µM in data set [8] is 0.26 ×10⁻⁶ cm/s; in [10], < 0.64 ×10⁻⁶ cm/s.
